Measurements from ChEMBL document CHEMBL3046069, “Anti-inflammatory effects of two new methyl and morpholine derivatives of diphenhydramine on rats” (2012).
Activity calls are given as the source filed them. The calls are words filed in the database; no cut-off is given here.

Assays:
Rattus norvegicus [1] = assay: Anti-inflammatory activity in Rattus norvegicus Wistar (rat) assessed as cotton pellet-induced dry weight of granuloma administered 7 days post cotton pellet implantation measured on day 8 (reference value: […]); format: functional
Rattus norvegicus [2] = assay: Anti-inflammatory activity in Rattus norvegicus Wistar (rat) assessed as inhibition of acetic acid-induced dye extrusion into peritonial cavity administered 30 min prior to acetic acid challenge measured after 30 min by Evans blue dye-based spectrophotometric analysis relative to control; format: functional
Rattus norvegicus [3] = assay: Anti-inflammatory activity in Rattus norvegicus Wistar (rat) assessed as inhibition of […]-induced ear edema administered 30 min prior to […] challenge measured after 30 min by Evans blue dye-based spectrophotometric analysis relative to control; format: functional, organism-based
Rattus norvegicus [4] = assay: Anti-inflammatory activity in Rattus norvegicus Wistar (rat) assessed as inhibition of formalin-induced dye extrusion from plantar surface of paws at 25 mg/kg, ip administered 30 min prior to formalin challenge measured after 30 min by Evans blue dye-based spectrophotometric analysis; format: functional; details: route intraperitoneal
Rattus norvegicus [5] = assay: Anti-inflammatory activity in Rattus norvegicus Wistar (rat) assessed as inhibition of histamine-induced dye extrusion from plantar surface of paws at 25 mg/kg, ip administered 30 min […] measured after 30 min by Evans blue dye-based spectroscopic analysis; format: functional; details: route intraperitoneal
Rattus norvegicus [6] = assay: Anti-inflammatory activity in Rattus norvegicus Wistar (rat) assessed as inhibition of histamine-induced paw edema at 25 mg/kg, ip administered 30 min […] measured at 1 hr relative to control; format: functional; details: route intraperitoneal
Rattus norvegicus [7] = assay: Anti-inflammatory activity in Rattus norvegicus Wistar (rat) assessed as inhibition of formalin-induced paw edema at 25 mg/kg, ip administered 30 min prior to formalin challenge measured at 1 hr relative to control; format: functional; details: route intraperitoneal

Compound: Cc1ccc(C(OCCN2CCOCC2)c2ccc(C)cc2)cc1
- Activity (Rattus norvegicus [1]): 71 mg
- inhibition (INH) (Rattus norvegicus [2]): 63.26%
- inhibition (Rattus norvegicus [3]): inactive
- inhibition in vivo at 25 mg/kg (Rattus norvegicus [4]): 60%
- inhibition in vivo at 25 mg/kg (Rattus norvegicus [5]): 60%

Compound: CN(C)CCOC(c1ccccc1)c1ccccc1 [DIPHENHYDRAMINE]
- Activity (Rattus norvegicus [1]): 76.2 mg

Compound: Cc1ccc(C(OCCN(C)C)c2ccc(C)cc2)cc1 [DI(P-TOLYL)(DIMETHYLAMINOETHOXY)METHANE]
- Activity (Rattus norvegicus [1]): 73.2 mg
- inhibition (INH) (Rattus norvegicus [2]): 65.3%
- inhibition (Rattus norvegicus [3]): inactive
- inhibition in vivo at 25 mg/kg (Rattus norvegicus [4]): 66.7%
- inhibition in vivo at 25 mg/kg (Rattus norvegicus [5]): 57.1%
- inhibition in vivo at 25 mg/kg (Rattus norvegicus [6]): 40.8%
- inhibition in vivo at 25 mg/kg (Rattus norvegicus [7]): 34.7%

Compound: CN(C)CCOC(c1ccccc1)c1ccc(Br)cc1 (configuration not stated) [BROMODIPHENHYDRAMINE]
- inhibition (Rattus norvegicus [2]): Active
- inhibition (Rattus norvegicus [3]): inactive
- inhibition in vivo at 25 mg/kg (Rattus norvegicus [6]): 22.4%
- inhibition in vivo at 25 mg/kg (Rattus norvegicus [7]): 14.3%
